According to publication PMC9653409, “Generative deep learning enables the discovery of a potent and selective RIPK1 inhibitor” (Nature Communications, 2022):

Assays:
Experiment in all cases: Kinase inhibitory activity profiling of RI-962@10 µM (406 kinases, Eurofins)
Format in all cases: biochemical
[1] = biological target: panel of human kinases (kinase named in endpoint) (Homo sapiens, UniProt Q9HC98); details: 10 µM; read-out: Activity (%), NEK6(h)
Method in brief: (§1)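 Radiometric filter-binding kinase assays: enzyme preincubated 15 min with compound in 8 mM MOPS pH 7.0, 0.2 mM EDTA, 250 μM peptide substrate, 10 mM magnesium acetate, 10 μM [γ-33P]-ATP. Reaction started with Mg/ATP, run 40 min at room temperature, stopped with phosphoric acid; 33P incorporation read by scintillation counting. Other kinases by similar protocols.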

[2] = biological target: panel of human kinases (kinase named in endpoint) (Homo sapiens, UniProt Q08881); details: 10 µM; read-out: Activity (%), Itk(h)
Method in brief: as §1

[3] = biological target: panel of human kinases (kinase named in endpoint) (Homo sapiens, UniProt Q12866); details: 10 µM; read-out: Activity (%), Mer(h)
Method in brief: as §1

[4] = biological target: panel of human kinases (kinase named in endpoint) (Homo sapiens, UniProt Q86Z02); details: 10 µM; read-out: Activity (%), HIPK1(h)
Method in brief: as §1

[5] = biological target: panel of human kinases (kinase named in endpoint) (Homo sapiens, UniProt Q7L7X3); details: 10 µM; read-out: Activity (%), TAO1(h)
Sequence of panel of human kinases (kinase named in endpoint) (Homo sapiens, UniProt Q7L7X3) (Q7L7X3 whole entry): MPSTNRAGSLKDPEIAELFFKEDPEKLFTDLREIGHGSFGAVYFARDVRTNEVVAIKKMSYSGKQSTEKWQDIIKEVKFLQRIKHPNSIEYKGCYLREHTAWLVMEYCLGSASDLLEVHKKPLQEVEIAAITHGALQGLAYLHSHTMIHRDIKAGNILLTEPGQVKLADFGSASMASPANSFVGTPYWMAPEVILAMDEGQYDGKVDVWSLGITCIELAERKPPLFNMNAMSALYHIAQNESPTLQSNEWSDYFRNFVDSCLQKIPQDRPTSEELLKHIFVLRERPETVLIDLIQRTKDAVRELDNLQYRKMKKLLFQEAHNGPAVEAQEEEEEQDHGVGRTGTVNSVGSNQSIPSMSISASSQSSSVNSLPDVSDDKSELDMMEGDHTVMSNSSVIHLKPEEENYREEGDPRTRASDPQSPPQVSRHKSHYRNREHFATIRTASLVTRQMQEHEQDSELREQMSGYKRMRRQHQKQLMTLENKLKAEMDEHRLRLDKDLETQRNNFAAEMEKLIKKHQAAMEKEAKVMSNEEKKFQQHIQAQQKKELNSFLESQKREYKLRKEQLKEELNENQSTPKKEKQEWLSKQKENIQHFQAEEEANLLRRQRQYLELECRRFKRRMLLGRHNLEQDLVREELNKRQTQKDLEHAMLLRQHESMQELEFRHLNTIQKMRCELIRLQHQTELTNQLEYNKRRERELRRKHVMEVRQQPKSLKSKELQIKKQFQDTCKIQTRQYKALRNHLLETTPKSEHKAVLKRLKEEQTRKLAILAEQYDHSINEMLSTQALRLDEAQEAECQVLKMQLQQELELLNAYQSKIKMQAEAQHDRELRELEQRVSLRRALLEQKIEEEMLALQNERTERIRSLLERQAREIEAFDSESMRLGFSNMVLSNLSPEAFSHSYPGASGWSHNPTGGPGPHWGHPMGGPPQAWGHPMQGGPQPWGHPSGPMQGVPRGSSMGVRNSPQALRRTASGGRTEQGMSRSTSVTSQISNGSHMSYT
Method in brief: as §1

[6] = biological target: panel of human kinases (kinase named in endpoint) (Homo sapiens, UniProt Q99986); details: 10 µM; read-out: Activity (%), VRK1(h)
Sequence of panel of human kinases (kinase named in endpoint) (Homo sapiens, UniProt Q99986) (Q99986 whole entry): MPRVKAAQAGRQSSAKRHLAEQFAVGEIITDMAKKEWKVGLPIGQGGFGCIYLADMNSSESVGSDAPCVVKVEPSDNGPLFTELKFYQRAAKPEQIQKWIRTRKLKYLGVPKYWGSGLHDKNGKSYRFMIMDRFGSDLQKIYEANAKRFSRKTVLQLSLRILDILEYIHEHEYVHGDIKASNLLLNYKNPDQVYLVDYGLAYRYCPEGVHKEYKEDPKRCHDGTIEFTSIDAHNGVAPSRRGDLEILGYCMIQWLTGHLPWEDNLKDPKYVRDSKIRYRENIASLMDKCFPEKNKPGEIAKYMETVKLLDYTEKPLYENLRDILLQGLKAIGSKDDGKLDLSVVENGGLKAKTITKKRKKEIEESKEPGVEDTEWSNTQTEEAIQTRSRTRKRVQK
Method in brief: as §1

[7] = biological target: panel of human kinases (kinase named in endpoint) (Homo sapiens, UniProt Q92772); details: 10 µM; read-out: Activity (%), CDKL2(h)
Sequence of panel of human kinases (kinase named in endpoint) (Homo sapiens, UniProt Q92772) (Q92772 whole entry): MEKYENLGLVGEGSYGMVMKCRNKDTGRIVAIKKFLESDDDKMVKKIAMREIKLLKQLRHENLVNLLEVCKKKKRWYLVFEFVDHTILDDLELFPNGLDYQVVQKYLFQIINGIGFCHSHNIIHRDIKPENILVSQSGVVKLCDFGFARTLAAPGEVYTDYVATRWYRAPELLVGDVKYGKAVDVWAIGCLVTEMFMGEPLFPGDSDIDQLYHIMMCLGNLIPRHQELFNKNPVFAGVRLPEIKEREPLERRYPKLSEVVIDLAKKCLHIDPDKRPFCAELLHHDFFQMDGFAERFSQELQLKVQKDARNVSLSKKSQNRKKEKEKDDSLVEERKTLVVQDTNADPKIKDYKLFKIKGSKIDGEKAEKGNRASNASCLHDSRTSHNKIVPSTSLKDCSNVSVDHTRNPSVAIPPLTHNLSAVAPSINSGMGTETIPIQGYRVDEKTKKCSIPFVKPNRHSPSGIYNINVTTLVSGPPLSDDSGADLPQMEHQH
Method in brief: as §1

[8] = biological target: panel of human kinases (kinase named in endpoint) (Homo sapiens, UniProt P51957); details: 10 µM; read-out: Activity (%), NEK4(h)
Sequence of panel of human kinases (kinase named in endpoint) (Homo sapiens, UniProt P51957) (P51957 whole entry): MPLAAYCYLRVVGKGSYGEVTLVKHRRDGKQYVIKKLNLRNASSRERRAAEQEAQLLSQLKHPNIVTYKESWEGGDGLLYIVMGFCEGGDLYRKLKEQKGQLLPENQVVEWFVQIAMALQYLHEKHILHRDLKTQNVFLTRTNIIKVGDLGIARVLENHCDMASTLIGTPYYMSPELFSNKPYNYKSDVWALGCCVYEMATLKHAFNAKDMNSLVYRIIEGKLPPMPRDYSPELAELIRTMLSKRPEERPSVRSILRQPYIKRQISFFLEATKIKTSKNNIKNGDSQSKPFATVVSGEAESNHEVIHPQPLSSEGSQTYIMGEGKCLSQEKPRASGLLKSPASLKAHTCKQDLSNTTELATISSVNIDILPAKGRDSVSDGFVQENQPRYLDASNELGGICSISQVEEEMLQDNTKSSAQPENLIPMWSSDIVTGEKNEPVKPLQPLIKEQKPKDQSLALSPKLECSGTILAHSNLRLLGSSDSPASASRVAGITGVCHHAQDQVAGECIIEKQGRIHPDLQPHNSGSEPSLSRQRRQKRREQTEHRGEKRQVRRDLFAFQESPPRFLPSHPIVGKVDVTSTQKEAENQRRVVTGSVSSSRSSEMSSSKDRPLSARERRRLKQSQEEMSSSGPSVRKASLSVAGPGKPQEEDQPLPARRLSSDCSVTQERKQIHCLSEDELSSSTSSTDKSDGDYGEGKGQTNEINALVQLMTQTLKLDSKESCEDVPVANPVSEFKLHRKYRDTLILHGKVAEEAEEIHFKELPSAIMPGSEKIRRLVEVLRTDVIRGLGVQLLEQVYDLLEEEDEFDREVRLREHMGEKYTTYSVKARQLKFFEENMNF
Method in brief: as §1

[9] = biological target: panel of human kinases (kinase named in endpoint) (Homo sapiens, UniProt P43403); details: 10 µM; read-out: Activity (%), ZAP-70(h)
Method in brief: as §1

[10] = biological target: panel of human kinases (kinase named in endpoint) (Homo sapiens, UniProt O15530); details: 10 µM; read-out: Activity (%), PDK1(h)
Sequence of panel of human kinases (kinase named in endpoint) (Homo sapiens, UniProt O15530) (O15530 whole entry): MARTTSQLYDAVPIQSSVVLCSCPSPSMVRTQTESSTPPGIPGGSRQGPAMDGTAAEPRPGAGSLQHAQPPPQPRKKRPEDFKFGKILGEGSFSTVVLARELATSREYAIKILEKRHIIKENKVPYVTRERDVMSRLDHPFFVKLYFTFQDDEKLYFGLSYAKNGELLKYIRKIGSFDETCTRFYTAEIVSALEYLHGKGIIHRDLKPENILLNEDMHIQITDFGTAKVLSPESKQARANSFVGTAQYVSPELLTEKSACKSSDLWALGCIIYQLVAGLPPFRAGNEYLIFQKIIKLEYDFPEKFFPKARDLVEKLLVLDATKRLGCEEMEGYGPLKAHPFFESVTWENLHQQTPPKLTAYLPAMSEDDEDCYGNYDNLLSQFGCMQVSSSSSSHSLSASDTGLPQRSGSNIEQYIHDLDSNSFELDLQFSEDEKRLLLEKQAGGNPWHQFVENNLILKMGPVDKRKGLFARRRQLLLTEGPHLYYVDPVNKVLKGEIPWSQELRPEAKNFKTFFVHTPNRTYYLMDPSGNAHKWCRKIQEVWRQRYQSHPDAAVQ
Method in brief: as §1

[11] = biological target: panel of human kinases (kinase named in endpoint) (Homo sapiens, UniProt Q9UHD2); details: 10 µM; read-out: Activity (%), TBK1(h)
Method in brief: as §1

[12] = biological target: panel of human kinases (kinase named in endpoint) (Homo sapiens, UniProt P04629); details: 10 µM; read-out: Activity (%), TrkA(h)
Method in brief: as §1

[13] = biological target: panel of human kinases (kinase named in endpoint) (Homo sapiens, UniProt Q9NY57); details: 10 µM; read-out: Activity (%), STK32B(h)
Method in brief: as §1

[14] = biological target: panel of human kinases (kinase named in endpoint) (Homo sapiens, UniProt Q16620); details: 10 µM; read-out: Activity (%), TrkB(h)
Sequence of panel of human kinases (kinase named in endpoint) (Homo sapiens, UniProt Q16620) (Q16620 32-822): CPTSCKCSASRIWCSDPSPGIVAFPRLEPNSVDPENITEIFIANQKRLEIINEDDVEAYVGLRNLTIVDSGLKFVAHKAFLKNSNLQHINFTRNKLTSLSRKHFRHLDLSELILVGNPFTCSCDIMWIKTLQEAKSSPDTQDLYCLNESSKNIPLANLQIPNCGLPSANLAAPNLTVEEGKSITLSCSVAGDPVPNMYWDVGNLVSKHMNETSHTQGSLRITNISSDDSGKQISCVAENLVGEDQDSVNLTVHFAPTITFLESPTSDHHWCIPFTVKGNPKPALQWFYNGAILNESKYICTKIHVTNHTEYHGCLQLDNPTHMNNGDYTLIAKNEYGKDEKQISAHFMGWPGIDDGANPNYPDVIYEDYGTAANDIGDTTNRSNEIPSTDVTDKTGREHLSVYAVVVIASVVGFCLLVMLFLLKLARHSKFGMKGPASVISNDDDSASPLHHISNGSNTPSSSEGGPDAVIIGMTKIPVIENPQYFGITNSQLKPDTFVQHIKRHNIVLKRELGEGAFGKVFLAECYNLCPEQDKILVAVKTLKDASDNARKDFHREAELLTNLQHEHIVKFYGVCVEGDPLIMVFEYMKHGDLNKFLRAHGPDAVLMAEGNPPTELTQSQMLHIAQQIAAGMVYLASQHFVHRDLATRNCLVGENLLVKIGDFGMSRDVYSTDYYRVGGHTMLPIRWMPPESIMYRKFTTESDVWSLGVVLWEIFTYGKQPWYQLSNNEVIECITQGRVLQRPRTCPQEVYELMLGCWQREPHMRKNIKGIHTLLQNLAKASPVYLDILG
Method in brief: as §1

[15] = biological target: panel of human kinases (kinase named in endpoint) (Homo sapiens, UniProt Q9UQ07); details: 10 µM; read-out: Activity (%), MOK(h)
Method in brief: as §1

[16] = biological target: panel of human kinases (kinase named in endpoint) (Homo sapiens, UniProt O00141); details: 10 µM; read-out: Activity (%), SGK(h)
Method in brief: as §1

[17] = biological target: panel of human kinases (kinase named in endpoint) (Homo sapiens, UniProt Q9NRH2); details: 10 µM; read-out: Activity (%), SNRK(h)
Method in brief: as §1

[18] = biological target: panel of human kinases (kinase named in endpoint) (Homo sapiens, UniProt O15111); details: 10 µM; read-out: Activity (%), IKKα(h)
Method in brief: as §1

[19] = biological target: panel of human kinases (kinase named in endpoint) (Homo sapiens, UniProt Q6SA08); details: 10 µM; read-out: Activity (%), TSSK4(h)
Method in brief: as §1

[20] = biological target: panel of human kinases (kinase named in endpoint) (Homo sapiens, UniProt Q6PHR2); details: 10 µM; read-out: Activity (%), ULK3(h)
Sequence of panel of human kinases (kinase named in endpoint) (Homo sapiens, UniProt Q6PHR2) (Q6PHR2 whole entry): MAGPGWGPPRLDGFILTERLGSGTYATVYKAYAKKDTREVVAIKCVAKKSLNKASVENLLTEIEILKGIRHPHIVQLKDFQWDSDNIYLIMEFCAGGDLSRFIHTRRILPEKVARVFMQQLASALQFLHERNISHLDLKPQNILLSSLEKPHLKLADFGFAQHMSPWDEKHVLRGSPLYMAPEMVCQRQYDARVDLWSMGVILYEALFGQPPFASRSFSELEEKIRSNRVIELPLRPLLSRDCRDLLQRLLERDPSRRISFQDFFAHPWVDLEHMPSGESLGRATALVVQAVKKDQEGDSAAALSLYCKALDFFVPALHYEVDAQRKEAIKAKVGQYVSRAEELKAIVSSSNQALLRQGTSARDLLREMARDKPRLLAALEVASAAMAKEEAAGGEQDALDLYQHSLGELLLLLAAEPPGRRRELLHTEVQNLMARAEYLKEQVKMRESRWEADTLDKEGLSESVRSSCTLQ
Method in brief: as §1

[21] = biological target: panel of human kinases (kinase named in endpoint) (Homo sapiens, UniProt O94768); details: 10 µM; read-out: Activity (%), DRAK2(h)
Method in brief: as §1

[22] = biological target: panel of human kinases (kinase named in endpoint) (Homo sapiens, UniProt P05129); details: 10 µM; read-out: Activity (%), PKCγ(h)
Method in brief: as §1

[23] = biological target: panel of human kinases (kinase named in endpoint) (Homo sapiens, UniProt P16234, V561D); details: 10 µM; read-out: Activity (%), PDGFRα(V561D)(h)
Method in brief: as §1

[24] = biological target: panel of human kinases (kinase named in endpoint) (Homo sapiens, UniProt P49760); details: 10 µM; read-out: Activity (%), CLK2(h)
Sequence of panel of human kinases (kinase named in endpoint) (Homo sapiens, UniProt P49760) (P49760 whole entry): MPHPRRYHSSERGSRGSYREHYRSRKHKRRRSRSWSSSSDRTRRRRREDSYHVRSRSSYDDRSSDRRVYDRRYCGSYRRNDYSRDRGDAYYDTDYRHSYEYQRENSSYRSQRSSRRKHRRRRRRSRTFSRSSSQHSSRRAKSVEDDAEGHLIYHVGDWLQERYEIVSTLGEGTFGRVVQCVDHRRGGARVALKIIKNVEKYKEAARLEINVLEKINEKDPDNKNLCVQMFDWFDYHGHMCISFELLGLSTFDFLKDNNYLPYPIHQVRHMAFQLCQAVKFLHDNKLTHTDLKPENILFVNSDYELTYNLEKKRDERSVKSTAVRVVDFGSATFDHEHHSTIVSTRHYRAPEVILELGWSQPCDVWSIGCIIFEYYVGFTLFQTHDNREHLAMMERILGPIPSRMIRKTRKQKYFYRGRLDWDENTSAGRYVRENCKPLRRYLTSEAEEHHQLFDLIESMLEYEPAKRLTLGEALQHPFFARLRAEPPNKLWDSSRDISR
Method in brief: as §1

[25] = biological target: panel of human kinases (kinase named in endpoint) (Homo sapiens, UniProt Q9NZJ5); details: 10 µM; read-out: Activity (%), PEK(h)
Method in brief: as §1

[26] = biological target: panel of human kinases (kinase named in endpoint) (Homo sapiens, UniProt O75385); details: 10 µM; read-out: Activity (%), ULK1(h)
Method in brief: as §1

**Q.** Which results are given for `CC(C)C(=O)Nc1nc2cc(-c3ccc4c(c3)c(C(=O)NC(C)c3ccccc3)cn4C)ccn2n1` (centres unmarked) [RI-962]?
**A.** activity at 10 µM [1]: 99%; activity at 10 µM [2]: 71%; activity at 10 µM [3]: 91%; activity at 10 µM [4]: 103%; activity at 10 µM [5]: 81%; activity at 10 µM [6]: 86%; activity at 10 µM [7]: 77%; activity at 10 µM [8]: 104%; activity at 10 µM [9]: 95%; activity at 10 µM [10]: 101%; activity at 10 µM [11]: 90%; activity at 10 µM [12]: 64%; activity at 10 µM [13]: 85%; activity at 10 µM [14]: 126%; activity at 10 µM [15]: 88%; activity at 10 µM [16]: 85%; activity at 10 µM [17]: 121%; activity at 10 µM [18]: 101%; activity at 10 µM [19]: 104%; activity at 10 µM [20]: 68%; activity at 10 µM [21]: 106%; activity at 10 µM [22]: 93%; activity at 10 µM [23]: 102%; activity at 10 µM [24]: 94%; activity at 10 µM [25]: 94%; activity at 10 µM [26]: 69%
